{"source": "patent US10842868B2", "about": "(priority 2012, dated 2020)", "key": {"DT, TT, PT, FHA and 69K": {"test_system": "DT, TT, PT, FHA and 69K", "type": "physicochemical"}, "[1]": {"type": "physicochemical", "settings": "K2 10, 50, 250 or 500 μg/ml; Al—H 3 mg/ml; all strengths", "method": "Compound K2 is added to water at 4mg/ml, then 1M NaOH is added to ensure full solubilisation, with stirring for 15 minutes at room temperature. This material is added to a suspension of aluminium hydroxide adjuvant (Al—H) to give the desired final concentration. This mixture is shaken for 2 hours at ambient temperature to ensure full adsorption, and then histidine buffer components are added (10mM histidine buffer, pH 6.5).\nFour different mixtures are prepared, giving a final K2 concentration of 10, 50, 250 or 500 μg/ml (to provide a 1, 5, 25 or 50 μg dose of K2 in a 100 μl dosage volume); the Al—H concentration is always 3 mg/ml. At all strengths >95% of compound K2 is adsorbed to the Al—H. The adsorbed adjuvant is referred to hereafter as “Al—H/K2”."}}, "data": [{"smiles": "Cc1cc(OCCOCCOCCP(=O)(O)O)ccc1CCc1cnc2c(N)nc3cc(CCC(=O)O)ccc3c2c1", "note": "[K2, 3-(5-amino-2-(2-methyl-4-(2-(2-(2-phosphonoethoxy)ethoxy)ethoxy)phenethyl)benzo [f]-[1,7]naphthyridin-8-yl)propanoic acid]", "values": [{"measurement": "adsorption of all antigens", "setting": "DT, TT, PT, FHA and 69K", "value": "completely adsorbed"}, {"measurement": "compound K2 adsorbed to the Al—H", "setting": "[1]", "value": "> 95", "unit": "%"}]}]}
